According to US8329643B2, “PIMAP39 modulates LPS-induced inflammatory response” (Trustees of Boston University, priority 2008, dated 2012):

Legend:
[1] = test system: LPS-induced TNF-α production; test: Effects of inhibitors on LPS-induced TNF-α production in THP-1 cells (ELISA); format: cell-based, human; settings: for LPS-induced TNF-α expression compared to LPS alone / TNF-α levels within 8-10 hrs post treatment: THP-1 cells; for LPS-induced TNF-α expression compared to LPS alone: 0.1 μg/ml E. coli LPS, 10 μM sodium orthovanadate, 20 μM AG490, U0126 or SB203580, ELISA 2-16 hours; for TNF-α levels within 8-10 hrs post treatment: LPS + inhibitor, ELISA
Method: THP-1 cells were differentiated with 100 nM phorbol-12-myristate-13-acetate (PMA) and seeded (1×10^5) in 6-well plates overnight. After washing by PBS, cells were stimulated with 0.1 mg/ml E. coli LPS for 3 hrs. The cells were washed with PBS again and treated with various inhibitors. 10 μM Sodium orthovandate, 20μM AG490, 20μM U0126, 20μM SB203580 or untreated as control. 200μl of supernatant was collected for ELISA assay (A) from each treatment at 2, 4, 6, 8, 12, 14 and 16 hours and its corresponding mRNA was prepared for RT-PCR (B) by first extracting total RNA from the treated cells using QIAQuick™ RNA miniprep (Qiagen). 1μg of each RNA was used to generate cDNA with Platinum® Quantitative RT-PCR ThermoScript™ One-Step System kit (Invitrogen). 10 ng pf cDNA from each test was PCRed using PTP4A3 forward primer 5′-[…]-3′ [SEQ ID NO: 2] and reverse primer 5′-[…]-3′ [SEQ ID NO: 3]. Another 1 ng of cDNA was PCRed using GAPDH primer pairs (Invitrogen) as control. Densitometric analysis (C) of RT-PCR (B) with intensity values normalized to GAPDH and using 0 hour value as reference intensity.
AG490, U0126 and SB203580 were purchased from EMD Biosciences (San Diego, Calif.). Sodium orthovanadate was purchased from Sigma-Aldrich (Saint Louis, Mo.). Human THP-1 cells were treated with 10 μM Sodium orthovanadate (PTP4A3 inhibitor [Greenwel, P, et al., (1995) Tyrosine dephosphorylation of nuclear proteins mimics transforming growth factor beta 1 stimulation of alpha 2(1) collagen gene expression. Mol Cell Biol 15:6813-6819], 20 μM AG490 (JAK inhibitor [Saudemont, A, et al., (2007) Dormant tumor cells develop cross-resistance to apoptosis induced by CTLs or imatinib mesylate via methylation of suppressor of cytokine signaling 1. Cancer Res 67:4491-4498], 20 μM U0126 (ERK inhibitor [Yang, L, et al., (2007) Inhibition of epidermal growth factor receptor signaling elevates 15-hydroxyprostaglandin dehydrogenase in non-small-cell lung cancer. Cancer Res 67:5587-5593], 20 μM SB203580 (p38 MAPK inhibitor [Hsieh, Y H, et al., (2007) p38 mitogen-activated protein kinase pathway is involved in protein kinase Calpha-regulated invasion in human hepatocellular carcinoma cells. Cancer Res 67:4320-4327].
For primary mouse macrophages or THP-1, cells were seeded (2×10^4 cells in 96-well plate or 2×10^6 cells in six-well plate) and were stimulated with […] of E. coli LPS (Sigma) and/or transiently transfected with […] of DNA using Lipofectamine™ Reagent and/or introduced with 500 ng/ml peptide using Chariot™ kit (ActiveMotif; Carlsbad, Calif.) prior to LPS treatment, then incubated at 37° C., 5% CO2 overnight. Culture supernatants were harvested and centrifuged at 1,500×g to remove cell debris. Concentrations of mouse or human TNF-α in the supernatant of each well of treated and untreated control cells were measured by ELISA (Abraxis, Warminster, Pa.). ELISA immunoreactivity was quantified by using a microplate reader (Bio-Rad, Hercules, Calif.) and graphed.
To investigate a link between PTP4A3 and the LPS signaling cascade, HP-1 cells were co-treated with 0.1 μg/ml E. coli LPS and/or various inhibitors, sodium orthovanadate (PTP4A3 inhibitor), AG490 (JAK inhibitor), U0126 (ERK inhibitor), SB203580 (p38 MAPK inhibitor) or untreated as control. The supernatants from cell culture at each time point (2, 4, 6, 8, 10, 12, 14 and 16 hours post stimulation) were collected and the potential role of these inhibitors on TNF-α production was measured by ELISA (Abraxis; […].). In parallel mRNA from each experimental group was prepared and quantified by RT-PCR.

PTP4A3 gene expression = test: PTP4A3 expression by RT-PCR in LPS plus inhibitor treated THP-1 cells; format: cell-based, human; settings: time course
Method: THP-1 cells were differentiated with 100 nM phorbol-12-myristate-13-acetate (PMA) and seeded (1×10^5) in 6-well plates overnight. After washing by PBS, cells were stimulated with 0.1 mg/ml E. coli LPS for 3 hrs. The cells were washed with PBS again and treated with various inhibitors. 10 μM Sodium orthovandate, 20μM AG490, 20μM U0126, 20μM SB203580 or untreated as control. 200μl of supernatant was collected for ELISA assay (A) from each treatment at 2, 4, 6, 8, 12, 14 and 16 hours and its corresponding mRNA was prepared for RT-PCR (B) by first extracting total RNA from the treated cells using QIAQuick™ RNA miniprep (Qiagen). 1μg of each RNA was used to generate cDNA with Platinum® Quantitative RT-PCR ThermoScript™ One-Step System kit (Invitrogen). 10 ng pf cDNA from each test was PCRed using PTP4A3 forward primer 5′-ATGGCTCGGATGAACCGC-3′ [SEQ ID NO: 2] and reverse primer 5′-CTACATAACGCAGCACCG-3′ [SEQ ID NO: 3]. Another 1 ng of cDNA was PCRed using GAPDH primer pairs (Invitrogen) as control. Densitometric analysis (C) of RT-PCR (B) with intensity values normalized to GAPDH and using 0 hour value as reference intensity.
The PCR or RT-PCR was performed following manufacturer's instructions.

[2] = test system: LPS-induced TNF-α expression; settings: monocyte cells, 'current studies'; cited from earlier work
[3] = test system: p38α/LITAF signaling pathway; test: Western blot of p38α/LITAF signaling pathway in LPS-treated THP-1 cells after PTP4A3 overexpression or RNAi; format: cell-based, human
Method: THP-1 cells (1×10^5) were stimulated with 0.1 μg/ml E. coli LPS for 3 hours. The cells were washed and transiently transfected with DNAs above using Lipofectamine™ reagent (Invetrogen). Treated cells were then incubated overnight. The supernatants from each culture were measured by ELISA. Elisa immunoreactivity was quantified using a microplate reader (Bio-Rad) and graphed (A). […] THP-1 cells (B) or mouse macrophage cells (C) were stimulated with 0.1 μg/ml E. coli LPS alone for 3 hours and then transfected with 1 μg/ml pcHAPTP DNA (B & C, lane 3) or 1 μg/ml pcDNA (B & C, lane 2) and untreated (B & C, lane 1) as controls by Lipofectamine reagent. Treated cells were incubated overnight and lysed. […]
THP-1 cells (5×10^6) matured by treatment with 200 nM phorbol 12-myristate 13-acetate (Sigma) were treated or untreated with 0.1 μg/ml LPS (Sigma) for 3 h and washed with PBS. […] The protein lysate from the treated or untreated cells were analyzed by Western blotting. […]
LITAF remains inactivated in the absence of p38 MAP kinase (p38α) and the inhibition of p38α down-regulates cytokines such as TNF-α [Tang, X, et al., (2006) LPS-induced TNF-alpha factor (LITAF)-deficient mice express reduced LPS-induced cytokine: Evidence for LITAF-dependent LPS signaling pathways. […] The lysate protein from each treated cell culture was detected by Western blot analysis. […]

| Compound | LPS-induced TNF-α expression compared to LPS alone [1] | PTP4A3 expression (RT-PCR) (PTP4A3 gene expression) | LPS-induced TNF-α expression at protein and mRNA levels [2] | further results |
| --- | --- | --- | --- | --- |
| [Na+].[Na+].[Na+].[O]=[V]([O-])([O-])[O-] [sodium orthovanadate, Sodium orthovanadate] | did not result in a significant decrease | No such maximum occurred | further enhanced | LPS-induced expression of TNF-α on co-treatment ([1]; LPS and orthovanadate, FIG. 1, 8-16 hrs): augmented; concentration of secreted TNF-α higher than LPS only treated cells ([1]; on average, at the 8 hr mark and beyond, LPS + 10 μM sodium orthovanadate): 20% |
| GUACGAGGACGCCAUCCAGUU & AACUGGAUGGCGUCCUCGUAC (listed as RNA, chemistry not given here) [RNAi, small interfering RNA (siRNA) specific for PTP4A3] |  |  |  | p38α phosphorylation in response to LPS ([3]; FIG. 4D, 100 nM siRNA or 0.5 mg pcHAPTP): significantly increased; ability of overexpressed PTP4A3 to dephosphorylate p38 ([3]; pcHAPTP plus RNAi, FIG. 4D lane 5): suppressed |
| C[S+]([O-])c1ccc(-c2nc(-c3ccncc3)c(-c3ccc(F)cc3)[nH]2)cc1 (centres unmarked) [SB203580] | significant decrease | at a maximum between 8-10 hrs |  |  |
| O=c1c(-c2ccc(O)cc2)coc2cc(O)cc(O)c12 [genistein] |  |  | markedly attenuated |  |
| N#CC(=C(/N)Sc1ccccc1N)/C(C#N)=C(\N)Sc1ccccc1N [U0126] | did not result in a significant decrease | at a maximum between 8-10 hrs |  | TNF-α levels within 8-10 hrs post treatment [1]: did not increase at all |
| N#C/C(=C/c1ccc(O)c(O)c1)C(=O)NCc1ccccc1 [AG490] | did not result in a significant decrease | at a maximum between 8-10 hrs |  | TNF-α levels within 8-10 hrs post treatment [1]: did not increase at all |
| CO[C@H]1[C@@H](OC)C[C@H](C)[C@@H](OC)C2=CC(=O)C=C(NC(=O)/C(C)=C/C=C\[C@H](OC)[C@@H](OC(N)=O)/C(C)=C/[C@@H]1C)C2=O [Herbimycin-A] |  |  | markedly attenuated |  |
